This note sets out measurements from US20260308158A1, “TARGETING RNAS ASSOCIATED WITH TAUOPATHIES WITH SMALL MOLECULES” (University of Florida Research Foundation, Incorporated, priority 2023, published 2026).

Data set [1] relates to DDPAC SRE RNA. Description: In vitro competitive Chem-CLIP (C-Chem-CLIP), DDPAC SRE RNA. As to conditions: 3 at 1.5 μM, read-out: IC50, competition of the binding of 3. The method, then: In Vitro Chemical Cross-linking and Isolation by Pull Down (Chem-CLIP) and Competitive Chem-CLIP (C-Chem-CLIP). Growth medium [Dulbecco's modified eagle medium (DMEM; corning, 10-013-CM) with 1× Glutagro (corning)] and 10% (v/v) fetal bovine serum (FBS; Sigma, 12003C) was inactivated by heating at 95° C. for 15 min and slowly cooling to room temperature. Approximately 10,000 counts of 32P 5′-end labeled tau WT, DDPAC, WT+I17T, or DDPAC+I17T RNA were folded in 10 μL growth medium by heating at 65° C. for 5 min and slowly cooling to room temperature. Chem-CLIP probe 3 or negative control probe 4 was then added into the folded RNA in a total volume of 20 μL, and the mixtures were incubated at 37° C. for 1 h. For C-Chem-CLIP, dilutions of competing compound 2 were incubated with RNA for 30 min before adding 3. […]
The Chem-CLIP probe 3 or control probe 4 was then clicked to disulfide biotin azide (2 μL of 10 mM solution prepared in DMSO solution per sample; Click Chemistry Tools, catalog no. 1168-10). […] The radioactive signal from bound RNAs (on the beads) and unbound RNAs (in the wash buffer) was measured by using a Beckman Coulter LS6500 Liquid Scintillation Counter as Rbound and Runbound. Enrichment was calculated as the percentage of radiolabeled RNA captured by beads calculated as Rbound/(Rbound+Runbound).

Data set [2] relates to HeLa cells. Kind of data set: Cell viability (WST-1), untransfected HeLa cells. It counts as cell-based. Conditions: up to 12.5 μM, 48 h. As for the experimental part:
(§1) Cell Viability. Cells were treated with DMSO (vehicle) or compound 2 for 48 h at 37° C. After the removal of the DMSO or compound-containing growth medium, the cells were washed with 1×DPBS and incubated in growth medium containing 10% (v/v) WST-1 cell proliferation reagent (Roche) or CellTiter Fluor (Promega; per the manufacturer's recommend protocol) for 40 min. The absorbance of the solution was measured at 450 and 650 nm with a SpectraMax M5 plate reader (Molecular Devices) for cells treated with WST-1. The background signal at 650 nm was subtracted from the WST-1 signal at 450 nm for analysis. For cells treated with CellTiter Fluor, the fluorescence was measured with 390 nm excitation and 505 nm emission wavelengths. Cells treated with a compound were compared to vehicle treated cells to determine the effect of the compound on cell viability.
Background: Tetrazolium assays rely on reduction of a dye to a coloured formazan, in cell work by metabolically active cells.

A short description of data set [3]: Cell viability (WST-1), untransfected HeLa cells. As to conditions: human, hela cells, 12.5 μM, WST-1, read-out: reduction of viability of HeLa cells. In kind it is cell-based. The method, then:
as §1

Data set [4] deals with WT tau RNA duplex. Kind of data set: NMR spectral analysis (WaterLOGSY, 1D, 2D NOESY) with WT tau duplex. In kind it is binding. The method, then:
Preparation of NMR Samples. Two duplex-forming oligoribonucleotides r (5′-[…]-3′ (SEQ ID NO: 3))+r(5′[…]-3′ (SEQ ID NO: 4)) were designed to mimic the stem of the tau wild type (WT) hairpin. Individual RNA oligonucleotides were combined in 400 μL of NMR Buffer [10 mM KH2PO4/K2HPO4, pH 6.0 and 0.5 mM EDTA] in H2O or 100% D2O with a final RNA duplex concentration of 15 μM for WaterLOGSY experiments, […] was added to 5% (v/v) to provide a lock signal. RNA samples were annealed by heating to 95° C. for 3 min, followed by slow cooling to room temperature before being added to Shigemi NMR tubes (Shigemi, Inc.). Compound of interest was added to a final compound: RNA molar ratio of 20.0 for WaterLOGSY experiments, 2.0 for 1D ^1H H2O experiments, and 1.5 for 2D ^1NOESY experiments.
NMR Spectroscopy. NMR spectra were acquired on Bruker Avance III 600 and 700 MHz spectrometers equipped with cryoprobes. WaterLOGSY spectra were acquired at 298 K, 1D NMR spectra of samples in 95% H2O/5% D2O were acquired at 283 K, and 2D NOESY spectra in 100% D2O were acquired at 308 K. For 1D spectra of samples in 95% H2O/5% D2O, an excitation sculpting sequence during acquisition suppressed the water signal. Proton chemical shifts were referenced internally to the frequency of water. WaterLOGSY and 1D ^1H spectra were processed using Bruker TopSpin and 2D NMR spectra were processed with NMRPipe^1 and assigned with SPARKY^2.

Usually IC50 stands for the concentration that gives 50% inhibition.

For `COc1cc(N)ncc1CCCN(C)CCCn1cnc2c3ccccc3n(C)c2c1=O` [Compound 2, 3-(3-((3-(6-amino-4-methoxypyridin-3-yl)propyl)(methyl)amino)propyl)-5-methyl-3,5-dihydro-4H-pyrimido[5,4-b]indol-4-one], the IC50 in data set [1] is ~2000 nM. In addition, the “effect on viability of HeLa cells” value in data set [2] is listed as “No effect on the viability”. Also, the cytotoxicity at 48 h, 12.5 µM in data set [3] came to 17 ± 3%. Also, the “WaterLOGSY on addition of RNA” value in data set [4] (300 μM of 2, WT tau duplex, 298 K) is on record as “changed the sign of the NOE, resulting in the appearance of negative peaks”. The “RNA 1D 1H (imino proton) spectrum on addition of compound” value in data set [4] (0.5-2.0 equivalents of 2) is reported as “dose dependent changes in the RNA's 1D ^1H spectrum”. Besides, in data set [4] (2D NOESY, 400 ms mixing time, 35° C.), the “NOE between compound and RNA” value is on record as “A single NOE was observed from H5/H6 of the compound to G17H1′”.
